Data reported in US20100056526A1, “HETEROMONOCYCLIC COMPOUND AND USE THEREOF” (Takeda Pharmaceutical Company Limited, priority 2006, published 2010).

Assays:
human AT1 receptor = molecular target: T1, human AT1 receptor (Homo sapiens, UniProt P30556); assay: Binding assay using human AT1 receptor-expressing CHO-K1 cell membrane fraction ([125I]-angiotensin II); details: 22.5 pM [125I]-angiotensin II, 9 μg AT1 membrane, 1 hr room temperature; read-out: AT1 receptor binding inhibitory action (IC50 (nM))
T1 construct: expressed in transfected cells; host or cells: CHO-K1
T1 sequence (P30556 1-359): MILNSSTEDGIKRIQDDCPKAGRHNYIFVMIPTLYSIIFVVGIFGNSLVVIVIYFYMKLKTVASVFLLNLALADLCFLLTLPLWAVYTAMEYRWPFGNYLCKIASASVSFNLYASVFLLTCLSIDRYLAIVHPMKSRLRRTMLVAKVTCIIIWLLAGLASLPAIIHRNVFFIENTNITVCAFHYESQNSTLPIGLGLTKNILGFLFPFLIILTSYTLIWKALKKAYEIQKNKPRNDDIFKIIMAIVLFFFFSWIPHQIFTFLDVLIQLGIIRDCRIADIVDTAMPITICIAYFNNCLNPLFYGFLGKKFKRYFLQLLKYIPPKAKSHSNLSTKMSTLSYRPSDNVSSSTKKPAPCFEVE
Method in brief: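 CHO-K1 membranes stably expressing AT1 (9 μg) incubated with 22.5 pM [125I]-angiotensin II and compound in 50 mM Tris pH 7.4, 10 mM MgCl2, with or without 0.3 mg/mL fatty acid-free BSA, 1 hr at room temperature. Bound radioactivity counted after GF/C filtration; nonspecific binding with 1 μM CV-11974; IC50 calculated.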

PPARγ = molecular target: T2, PPARγ (Homo sapiens, UniProt P37231); assay: Evaluation of PPARγ activating action (luciferase reporter in PPARγ:RXRα:4ERPP/CHO-K1 cells); format: cell-based; details: CHO-K1, 24 h; test compound 10^−6 M; luciferase activity relative to control compound X (1 μM) = 100%, non-administration group = 0%; read-out: PPARγ activating action (activation % (10^−6 M))
T2 construct: expressed in transfected cells; host or cells: CHO-K1
T2 sequence (P37231 1-477 isoform P37231-2): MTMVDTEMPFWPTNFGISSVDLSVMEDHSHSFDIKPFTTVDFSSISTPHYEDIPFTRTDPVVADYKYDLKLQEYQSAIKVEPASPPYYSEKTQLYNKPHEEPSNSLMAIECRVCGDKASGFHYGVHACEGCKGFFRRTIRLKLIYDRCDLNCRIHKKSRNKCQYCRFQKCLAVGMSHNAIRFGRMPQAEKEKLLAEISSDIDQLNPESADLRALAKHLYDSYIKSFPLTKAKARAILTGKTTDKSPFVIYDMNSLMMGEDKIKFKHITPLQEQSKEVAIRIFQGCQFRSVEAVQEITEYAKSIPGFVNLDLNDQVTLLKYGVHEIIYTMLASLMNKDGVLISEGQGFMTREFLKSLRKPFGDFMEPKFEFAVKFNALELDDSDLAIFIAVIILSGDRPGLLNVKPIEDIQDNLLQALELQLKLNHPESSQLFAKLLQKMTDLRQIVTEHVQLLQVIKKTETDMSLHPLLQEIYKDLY
T2 sequence (P19793 1-462 partner): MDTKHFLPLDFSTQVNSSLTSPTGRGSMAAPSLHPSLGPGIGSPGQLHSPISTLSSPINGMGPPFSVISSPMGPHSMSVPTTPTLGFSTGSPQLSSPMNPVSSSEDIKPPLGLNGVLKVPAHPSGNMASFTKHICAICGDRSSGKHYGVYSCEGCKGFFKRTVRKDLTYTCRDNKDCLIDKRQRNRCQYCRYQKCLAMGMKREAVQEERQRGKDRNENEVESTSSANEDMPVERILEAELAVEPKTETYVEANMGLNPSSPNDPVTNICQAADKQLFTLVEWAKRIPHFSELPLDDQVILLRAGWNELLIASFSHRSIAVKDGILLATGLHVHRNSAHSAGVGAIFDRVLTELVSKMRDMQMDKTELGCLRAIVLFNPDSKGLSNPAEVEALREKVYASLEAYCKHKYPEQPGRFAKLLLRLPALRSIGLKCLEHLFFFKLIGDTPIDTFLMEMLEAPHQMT
Method in brief: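 CHO-K1 cells stably carrying PPARγ, RXRα and a 4ERPP luciferase reporter were treated with compound for 1 day at 37 °C in F12 medium with 0.1% fatty acid-free BSA. Luciferase activity was read and scaled between no compound (0%) and reference agonist compound X at 1 μM (100%).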

Row | Structure (SMILES) | IC50 (human AT1 receptor) [nM] | activation at 1 µM (PPARγ) [%]
1 | CCCc1nc(CC)n(-c2ccc(OC(C)(C)C)cc2)c(=O)c1Cc1ccc(-c2ccccc2-c2noc(=O)[nH]2)cc1 [Example 364, 3-(4-tert-butoxyphenyl)-2-ethyl-5-{[2′-(5-oxo-4,5-dihydro-1,2,4-oxadiazol-3-yl)biphenyl-4-yl]methyl}-6-propylpyrimidin-4(3H)-one] | 1.9 | 32.6
2 | CCCc1nc(CC)n(-c2cccc(C(C)(C)O)c2)c(=O)c1Cc1ccc(-c2ccccc2-c2noc(=O)[nH]2)cc1 [Example 365, 2-ethyl-3-[3-(1-hydroxy-1-methylethyl)phenyl]-5-{[2′-(5-oxo-4,5-dihydro-1,2,4-oxadiazol-3-yl)biphenyl-4-yl]methyl}-6-propylpyrimidin-4(3H)-one] | 1.8 | 25.3
3 | CCCc1nc(OC)n(-c2ccc(OC(C)C)cc2)c(=O)c1Cc1ccc(-c2ccccc2-c2noc(O)n2)cc1 [Example 368, 3-(4-isopropoxyphenyl)-2-methoxy-5-{[2′-(5-oxo-4,5-dihydro-1,2,4-oxadiazol-3-yl)biphenyl-4-yl]methyl}-6-propylpyrimidin-4(3H)-one] | 2 | 50.2
4 | CCCc1nc(OC)n(-c2ccc(OC(C)(C)C)cc2)c(=O)c1Cc1ccc(-c2ccccc2-c2noc(O)n2)cc1 [Example 369, 3-(4-tert-butoxyphenyl)-2-methoxy-5-{[2′-(5-oxo-4,5-dihydro-1,2,4-oxadiazol-3-yl)biphenyl-4-yl]methyl}-6-propylpyrimidin-4(3H)-one] | 1.9 | 36.3
5 | CCCc1nc(CC)n(-c2ccc(OC(C)C)nc2)c(=O)c1Cc1ccc(-c2ccccc2-c2noc(=O)[nH]2)cc1 [Example 373, 2-ethyl-3-(6-isopropoxypyridin-3-yl)-5-{[2′-(5-oxo-4,5-dihydro-1,2,4-oxadiazol-3-yl)biphenyl-4-yl]methyl}-6-propylpyrimidin-4(3H)-one] | 2.4 | 48.4
6 | CCCc1nc(CC)n(-c2ccc(OC(C)(C)COC)cc2)c(=O)c1Cc1ccc(-c2ccccc2-c2noc(=O)[nH]2)cc1 [Example 376, 2-ethyl-3-[4-(2-methoxy-1,1-dimethylethoxy)phenyl]-5-{[2′-(5-oxo-4,5-dihydro-1,2,4-oxadiazol-3-yl)biphenyl-4-yl]methyl}-6-propylpyrimidin-4(3H)-one] | 1.7 | 22
7 | CCCc1nc(CC)n(-c2ccc(OC(C)(C)CO)cc2)c(=O)c1Cc1ccc(-c2ccccc2-c2noc(=O)[nH]2)cc1 [Example 377, 2-ethyl-3-[4-(2-hydroxy-1,1-dimethylethoxy)phenyl]-5-{[2′-(5-oxo-4,5-dihydro-1,2,4-oxadiazol-3-yl)biphenyl-4-yl]methyl}-6-propylpyrimidin-4(3H)-one] | 1.5 | 30.3
8 | CCCc1nc(CC)n(-c2ccc(OC3CCOCC3)cc2)c(=O)c1Cc1ccc(-c2ccccc2-c2noc(=O)[nH]2)cc1 [Example 378, 2-ethyl-5-{[2′-(5-oxo-4,5-dihydro-1,2,4-oxadiazol-3-yl)biphenyl-4-yl]methyl}-6-propyl-3-[4-(tetrahydro-2H-pyran-4-yloxy)phenyl]pyrimidin-4(3H)-one] | 1.5 | 46.9
9 | CCCc1nc(C)n(OC2CCOCC2)c(=O)c1Cc1ccc(-c2ccccc2-c2noc(=O)[nH]2)cc1 [Example 379, 2-methyl-5-{[2′-(5-oxo-4,5-dihydro-1,2,4-oxadiazol-3-yl)biphenyl-4-yl]methyl}-6-propyl-3-(tetrahydro-2H-pyran-4-yloxy)pyrimidin-4(3H)-one] | 3.4 | 31
10 | CCCc1nc(CC)n(-c2ccc(OC3CCC[C@H]3O)cc2)c(=O)c1Cc1ccc(-c2ccccc2-c2noc(=O)[nH]2)cc1 (stereo partly drawn) [Example 381, 2-ethyl-3-(4-{[(2R)-2-hydroxycyclopentyl]oxy}phenyl)-5-{[2′-(5-oxo-4,5-dihydro-1,2,4-oxadiazol-3-yl)biphenyl-4-yl]methyl}-6-propylpyrimidin-4(3H)-one] | 1.2 | 28.2
11 | CCCc1nc(CC)n(-c2ccc(OC3CCCC3=O)cc2)c(=O)c1Cc1ccc(-c2ccccc2-c2noc(=O)[nH]2)cc1 (stereo not drawn) [Example 382, 2-ethyl-3-{4-[(2-oxocyclopentyl)oxy]phenyl}-5-{[2′-(5-oxo-4,5-dihydro-1,2,4-oxadiazol-3-yl)biphenyl-4-yl]methyl}-6-propylpyrimidin-4(3H)-one] | 1.2 | 27.2
12 | CCCc1nc(OC)n(-c2ccc(O[C@@H]3C[C@@H](C)O[C@@H](C)C3)cc2)c(=O)c1Cc1ccc(-c2ccccc2-c2noc(=O)[nH]2)cc1 [Example 388, 3-(4-{[(2R,4s,6S)-2,6-dimethyltetrahydro-2H-pyran-4-yl]oxy}phenyl)-2-methoxy-5-{-[2′-(5-oxo-4.,5-dihydro-1,2,4-oxadiazol-3-yl)biphenyl-4-yl]methyl}-6-propylpyrimidin-4(3H)-one] | 1.6 | 34.4
13 | CCCc1nc(CC)n(-c2ccc(OC3(COC)CCCC3)cc2)c(=O)c1Cc1ccc(-c2ccccc2-c2noc(=O)[nH]2)cc1 [Example 389, 2-ethyl-3-(4-{[1-(methoxymethyl)cyclopentyl]oxy}phenyl)-5-{[2′-(5-oxo-4,5-dihydro-1,2,4-oxadiazol-3-yl)biphenyl-4-yl]methyl}-6-propylpyrimidin-4(3H)-one] | 1.8 | 18.1
14 | CCCc1nc(CC)n(-c2ccc(OC3(CO)CCCC3)cc2)c(=O)c1Cc1ccc(-c2ccccc2-c2noc(=O)[nH]2)cc1 [Example 390, 2-ethyl-3-(4-{[1-(hydroxymethyl)cyclopentyl]oxy}phenyl)-5-{[2′-(5-oxo-4,5-dihydro-1,2,4-oxadiazol-3-yl)biphenyl-4-yl]methyl}-6-propylpyrimidin-4(3H)-one] | 1.2 | 19.9
15 | CCCc1nc(CC)n(-c2ccc(OC(COCC)COCC)cc2)c(=O)c1Cc1ccc(-c2ccccc2-c2noc(=O)[nH]2)cc1 [Example 395, 3-{4-[2-ethoxy-1-(ethoxymethyl)ethoxy]phenyl}-2-ethyl-5-{[2′-(5-oxo-4,5-dihydro-1,2,4-oxadiazol-3-yl)biphenyl-4-yl]methyl}-6-propylpyrimidin-4(3H)-one] | 1.7 | 16
16 | CCCc1nc(C)n(-c2ccc(OC(C)C)cc2)c(=O)c1Cc1ccc(-c2ccccc2-c2noc(=O)[nH]2)cc1Cl [Example 396, 5-{[3-chloro-2′-(5-oxo-4,5-dihydro-1,2,4-oxadiazol-3-yl)biphenyl-4-yl]methyl}-3-(4-isopropoxyphenyl)-2-methyl-6-propylpyrimidin-4(3H)-one] | 2.2 | 50.6
17 | CCCc1nc(C)n(-c2ccc3c(c2)CC(C)(C)O3)c(=O)c1Cc1ccc(-c2ccccc2-c2noc(=O)[nH]2)cc1Cl [Example 397, 5-{[3-chloro-2′-(5-oxo-4,5-dihydro-1,2,4-oxadiazol-3-yl)biphenyl-4-yl]methyl}-3-(2,2-dimethyl-2,.3-dihydro-1-benzofuran-5-yl)-2-methyl-6-propylpyrimidin-4(3H)-one] | 2.1 | 48.6
18 | CCCc1nc(C)n(-c2ccc(OC(C)C)cc2)c(=O)c1Cc1ccc(-c2ccccc2-c2noc(=O)[nH]2)c(OC)c1 [Example 400, 3-(4-isopropoxyphenyl)-5-{[2-methoxy-2′-(5-oxo-4,5-dihydro-1,2,4-oxadiazol-3-yl)biphenyl-4-yl]methyl}-2-methyl-6-propylpyrimidin-4(3H)-one] | 2.8 | 21.3
